We go through one compound from article PMC6941823, “A dispensable paralog of succinate dehydrogenase subunit C mediates standing resistance towards a subclass of SDHI fungicides in Zymoseptoria tritici” (PLoS Pathogens, 2019).

In experiment [1] the test system is Zymoseptoria tritici on wheat variety Riband. As to the kind of experiment: In planta fungicide dose response. It counts as in vivo. The note with it: for In planta EC50: application one day before infection. The method, then: The influence of the ZtSDHC3-driven SHA-SDHI resistance for the control of Z. tritici during wheat infection was assessed with a small range of commercial SDHIs (Fig 4C and 4D). In planta SDHIs sensitivity assays were performed with the 06STD024 isolate and its ZtSDHC1 or ZtSDHC3 KO mutants. A control strain (705) devoid of the ZtSDHC3 gene but more aggressive than IPO323 on wheat variety Riband was also included for comparison (Fig 4C and 4D).
Wheat (Triticum aestivum) variety Riband was grown in pots (d = 6.5cm), at a density of 4 plants per pot and treated with the growth regulator CCC (Chlorcholinchlorid; Chlormequat; 5 ml / pot, 0.4% solution) 4 days after sowing. Wheat plantlets were maintained in a climatic room at 18°C, 60% humidity and under a 12h light regime (high intensity). Fungicide applications were performed on 14 days old plantlets for which leaf 2 is the fully expanded target leaf. Fungicide treatments were performed using a custom-made track sprayer adjusted at 200L.ha^-1 (Nozzle: Lechler, orange LU90-01). […] Z. tritici infections were performed using a Devilbis airbrush (spray of about 150ml.m^-2) one day after fungicide application and using an inoculum grown on V8-agar adjusted to 1.8.10^6 spores.ml^-1 in 0.05% Tween20 in MQ water. Inoculated plants were initially incubated for 72h under reduced light conditions and high humidity using towel-covered Plexiglas hoods in a climatic chamber set to 21°C/19°C day/night alternations, 80% humidity and a 14h light regime. The Plexiglas hoods were then removed until evaluation. Plants were fertilized once per week and disease evaluation performed based on disease coverage on the second leaf approximately 16–19 days after infection, once untreated plants reached 75–90% disease coverage. Each fungicide was tested at several rates to produce dose responses. There were 3 pots (4 plants each) per fungicide rate and isolate, the whole experiment was repeated 4 times. In planta EC50 were calculated using the software GraphPad Prism v6.08.

In experiment [2] the test system is SQR (SDHC / altC) of IPO323 pTet::SDHC3 transformant, induced. The experiment in a line: Succinate-quinone (SQR) SDHI sensitivity assay on purified mitochondria, IPO323 pTet::SDHC3 induced. The following applies: IPO323 pTet::SDHC3 transformant grown in the absence of doxycycline; mean of three ± SD. In kind it is biochemical, Zymoseptoria tritici. Summed up:
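Succinate:ubiquinone/DCPIP reductase inhibition measured on purified mitochondria from Zymoseptoria tritici strains carrying either a single C-subunit gene (ZtSDHC1, ZtSDHC1_A84I or ZtSDHC3) or both ZtSDHC1 and ZtSDHC3; pTet::SDHC3 transformant tested under repressed and induced conditions.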

Take `CON(C(=O)c1cn(C)nc1C(F)F)[C@@H](C)Cc1c(Cl)cc(Cl)cc1Cl` [Pydiflumetofen]: the entries for the “In planta EC50” value in experiment [1] (06STD024 ZtSDHC1 KO on wheat Riband), in experiment [1] (06STD024 ZtSDHC3 KO mutant on wheat Riband) and in experiment [1] (WT isolate 06STD024 on wheat Riband) were 2.85 g.ha^-1, 0.053 g.ha^-1 and 1.31 g.ha^-1, respectively. The “In planta sensitivity difference compared to the ZtSDHC3 KO mutant” value in experiment [1] (WT isolate 06STD024 vs 06STD024 ZtSDHC3 KO) stood at 25 fold. The compound further returned an IC50 in experiment [2] of 900 ± 300 pM.

As a reminder, the IC50 is the concentration that inhibits the measured activity by half. Low values mean greater potency in that assay, high ones weaker potency in that assay.
